Reference: paper PMC5520216, “Frutapin, a lectin from Artocarpus incisa (breadfruit): cloning, expression and molecular insights” (Bioscience Reports, 2017)
Blank lines part the entries; values can stand above or below the molecule they belong to.

What was measured:
[1] = biological target: T1, Frutapin (FTP), recombinant (Artocarpus altilis, UniProt A0A2D0TC52); test: inhibition of haemagglutination of red blood cells, double serial dilution; assay type: cell-based; settings: 37 °C, 1 h, visual read-out, carbohydrate-binding site
T1 construct: full-length FTP (450 bp clone from leaf cDNA, codon-optimised ORF), pET SUMO in E. coli BL21, His-SUMO tag cut off with ULP1
T1 sequence (A0A2D0TC52 entry or part of it): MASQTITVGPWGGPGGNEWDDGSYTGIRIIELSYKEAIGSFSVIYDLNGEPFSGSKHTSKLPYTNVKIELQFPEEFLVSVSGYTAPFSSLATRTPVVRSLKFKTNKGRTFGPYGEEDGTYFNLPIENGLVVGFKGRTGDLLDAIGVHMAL

[2] = biological target: T1, Frutapin (FTP), recombinant; test: X-ray co-crystal structure, […] Å; settings: co-crystallised with 100 mM glucose, glycerol removed; carbohydrate-binding site of all four monomers
[3] = biological target: T1, Frutapin (FTP), recombinant; test: X-ray co-crystal structure, […] Å; settings: co-crystallised with 20 mM mannose, glycerol removed; carbohydrate-binding site of all four monomers
[4] = biological target: Frutapin (FTP), recombinant, mannose-binding lectin from Artocarpus incisa (breadfruit) (Artocarpus incisa (breadfruit)); test: native gel or EMSA; native gel electrophoresis of purified FTP after removal of the SUMO tag; size from a plot of Rf against log10 (MWt)

Molecule: OC[C@H]1O[C@H](O)[C@H](O)[C@@H](O)[C@@H]1O [α-D-glucose]
- X-ray co-crystal structure, 1.60 Å [2]: FTP was also co-crystallized with mannose and glucose

Molecule: OC[C@H]1O[C@H](O)[C@@H](O)[C@@H](O)[C@@H]1O [α-D-mannose]
- X-ray co-crystal structure, 1.70 Å [3]: FTP was also co-crystallized with mannose and glucose

Other lines, results leading:

- inhibitory sugar concentration ([1]; 42.8 µg/ml FTP): 100 mM
Molecule: OC[C@H]1OC(O)[C@H](O)[C@@H](O)[C@@H]1O (some centres unmarked) [glucose]

- inhibitory sugar concentration ([1]; 12.4 µg/ml FTP): 6.25 mM
Molecule: OC[C@H]1OC(O)[C@@H](O)[C@@H](O)[C@@H]1O (some centres unmarked) [mannose]

- stoichiometry N [4]: 4
Molecule: Frutapin (FTP), recombinant, mannose-binding lectin from Artocarpus incisa (breadfruit) (natural protein)
